# Entries after “also recorded” stand apart in the source; their conditions may differ.
# Tests used:
# [1] = system: rats having bilateral lesions of the fimbria-fornix; test: Locomotor activity (hyperactivity) after bilateral fimbria-fornix lesion; type: in vivo, rat
# Procedure: To determine whether low calcemic doses of vitamin D3 analogs would improve lesion-induced behavioral deficits, Compound (A) (0.1 and 1.0 μg/kg/day) was administered orally once a day (26 days) to rats having bilateral lesions of the fimbria-fornix. Bilateral lesions of the fimbria-fornix cause rats to become hyperactive. To test for hyperactivity, rats were placed in a box marked with squares, where it was observed how many squares the rats entered in a five minute period.
# [2] = system: acrylamide-induced peripheral neuropathy in rats; test: Acrylamide-induced peripheral neuropathy, landing foot spread; type: in vivo, rat
# Procedure: Peripheral neuropathy was induced in rats by the administration of the neurotoxin acrylamide, 50 mg/kg, IP, 3×/week. The acrylamide treatment occurred during the first three weeks of the experiment. After acrylamide was discontinued, the animals were allowed to recover for an additional 3-5 weeks. The ability of Compound (A) or Compound (B) to either slow the onset of peripheral neuropathy, reduce the severity of the peripheral neuropathy or enhance the recovery from peripheral neuropathy was determined. The compounds were administered either orally (Compound (A)) or via subcutaneous Alzet mini-pumps (I month model)(Compounds (A) and (B)) beginning 3 days prior to the first dose of acrylamide. Compound (A) was administered orally at doses of 0.3, 1.0 and 3.0 μg/kg/day and by mini-pump at doses of 10, 55, 100, 330 and 550 ng/day. Compound (B) was administered by mini-pump at doses of 10, 33, 100, 330 and 1000 ng/day. These dose ranges were selected to limit toxicity and to bracket the dose range used in fimbria fornix lesion experiments. The mini-pumps were replaced at the end of the fourth week so that the test compound was on board for the duration of the experiment. In FIG. 11B, the data from FIG. 11A was averaged.
# hippocampal ChAT = test: Fimbria fornix lesion model, hippocampal ChAT activity; type: in vivo, rat; conditions: oral gavage daily 14 days, FIGS. 4 to 8; * p<0.05 vs vehicle-treated lesioned controls
# From the text: The fimbria fornix lesion model is an established protocol for assessing cholinergic neuronal survival in the basal forebrain. […] Contained within the region of the brain 10 are cholinergic neurons 16. A healthy cholinergic neuron has a cell body 18, and one or more axons 20. Each of the axons 20 have a free end, referred to as a terminal 22, that extends into the hippocampus 14. In the fimbria fornix lesion model, damaged cholinergic neurons 24 are produced by transecting a portion of the axons 20 at a location 26 between the hippocampus 14 and the cell body 18. As a result of this transection, damaged cell bodies 28 are produced that no longer have cholinergic axons 30 and terminals 32. These damaged cell bodies 28, also lose cholinergic cell body markers 34 and stop producing ChAT. The fimbria fornix lesion model is used to study methods of restoring ChAT production, such as through stimulating increased production of ChAT in the healthy cholinergic neurons, and/or through restoring normal functioning of the damaged cholinergic neurons 24.
# For the studies described herein, animals were anesthetized with pentobarbital and placed in a stereotaxic apparatus. The skull was opened on the left side, a knife was positioned 1.2 mm posterior to bregma and 0.6 mm lateral to the midline. The knife was lowered to 4.5 mm below the dura into the brain and moved laterally 2 mm partially transecting the fimbria fornix. After 14 days of administration of the test compounds by oral gavage, the hippocampus was removed and homogenized.
# The hippocampal ChAT activity is expressed as a percentage of the hippocampal ChAT activity of the […] control side (i.e., lesion control) in FIGS. 4 to 8.
# NRT-like mRNA = test: Induction of NRT-like mRNA expression in rats; type: in vivo, Sprague Dawley rats; conditions: 0.3, 1.0 and 3.0 μg/kg oral, 8 days; septum (FIG. 1)
# Procedure: Young adult male Sprague Dawley rats (250-350 g) were administered Compound (A), Compound (E), or a vehicle (80% propylene glycol (human formulation grade; Spectrum Quality Products, Inc., Gardena, Calif., catalog #PR130-55003) and 20% phosphate buffer, pH 9.2) at doses ranging from 0.1 to 5.5 μg/kg daily by oral gavage for eight days. Five hours after the last dose, the animals were sacrificed by decapitation. Each brain was quickly removed and chilled in ice-cold saline. The brain was cut into 2 mm thick coronal sections. Portions of the hippocampus, encompassing the CA1 region, and the medial septum were removed by punching 2 mm^3 sections using a calibrated tissue punch. Punched sections were immediately frozen on dry ice and then stored at -70° C. RNA was prepared from dissected tissue pieces.
# Punches of tissue were homogenized in […] RNAzolB™ (Bioteex Laboratories, Houston, Tex.) using a homogenizer (Tekmar, Germany) until fully homogenized and then 250 μl RNAzilB™ was added. Typically, punches from the corresponding regions of brains of 2 to 3 animals were combined together. RNA was prepared as recommended by the manufacturer (Biotecx Laboratories). […] Concentration of RNA was measured spectrophotometrically and the quality of RNA was visualized on a nondenaturing agarose gel. […]
# [3] = Serum calcium in primates; type: in vivo, monkey; conditions: 10 and 30 μg/kg/day oral, 8 days
# [4] = Serum calcium / hypercalcemia in rats (2 weeks dosing, 28-day toxicology); type: in vivo, Sprague Dawley rats
compound,measurement,setting,value
"C=C1/C(=C\C=C2/CCC[C@]3(C)[C@@H]([C@@H](C)[C@@H](C#CCC(O)(CC)CC)OCC)CC[C@@H]23)C[C@@H](O)C[C@@H]1O [Compound (A), 1(S),3(R)-dihydroxy-20(R)-(1-ethoxy-5-ethyl-5-hydroxy-2-heptyn-1-yl)-9,10-seco-pregna-5(Z),7(E),10(19)-triene]",locomotor activity (squares entered per 5 minutes),"[1]; 1.0 μg/kg/day oral, 26 days",reduced locomotor activity
same,locomotor activity caused by fimbria fornix lesions,"[1]; FIG. 10 legend, oral",reduces locomotor activity
same,development of peripheral neuropathy,[2]; continuously pumped (mini-pump),did not prevent the development of the acrylamide-induced peripheral neuropathy
same,recovery from peripheral neuropathy,[2]; mini-pump,improved recovery; also recorded: an effect upon the recovery from the lesion was apparent
same,landing foot spread,"[2]; mini-pump, recovery period","effective in reducing landing foot spread, but only during the recovery period; also recorded: decreased landing foot spread during the recovery period"
same,development of peripheral neuropathy,[2]; oral,prevented the development of acrylamide-induced peripheral neuropathy
same,severity of neuropathy and functional recovery,[2]; oral,dose-dependent effects on both the severity of the acrylamide-induced peripheral neuropathy as well as the ability of the animals to functionally recover from the lesion
same,landing foot spread,[2]; oral 3.0 μg/kg/day,statistically significant decrease in landing foot spread
same,time course of decrease in landing foot spread,"[2]; oral 3.0 μg/kg/day, onset days 1-24, recovery days 24-42",occurred during the onset of the lesion (days 1-24) and were sustained through the recovery phase
same,landing foot spread,"[2]; oral, FIGS. 11A-11C legend",decreases landing foot spread
same,hippocampal ChAT activity vs lesioned controls,hippocampal ChAT,significant increase in CHAT activity
same,production of NRT-like mRNA,NRT-like mRNA,facilitated the production of NRT-like mRNA
same,serum calcium levels,[3],did not increase serum calcium levels and were not hypercalcemic doses
same,serum calcium,"[4]; 1.0 μg/kg, after 2 weeks of dosing",did not increase serum calcium
same,calcemic classification of dose,"[4]; 1.0 μg/kg, considered in toto",hypercalcemic dose when considered in toto
same,"hypercalcemia, 28-day toxicology studies","[4]; 1 μg/kg, female vs male Sprague Dawley rats, data not shown","hypercalcemic to female, but not male, Sprague Dawley rats"
same,hypercalcemia,[4]; 3.0 μg/kg,hypercalcemic to the animals
